# Test results reported in PMC7932537, “Quantitative profiling of protease specificity” (PLoS Computational Biology, 2021).
# Tests used:
# MMP-9 [1] = target: MMP-9 (Homo sapiens, UniProt P14780); test: K(obs) of individual phage substrates (set of 1369); format: biochemical; conditions: MMP9; individual phage substrate of the set of 1369 peptides; dash in sequence marks cleavage position
# MMP-2 = target: T1, MMP-2 (Homo sapiens, UniProt P08253); test: as above; format: biochemical; conditions: MMP2; individual phage substrate from the set of 1369 peptides; hyphen in the sequence marks the cleavage position
# T1 sequence (P08253 110-660): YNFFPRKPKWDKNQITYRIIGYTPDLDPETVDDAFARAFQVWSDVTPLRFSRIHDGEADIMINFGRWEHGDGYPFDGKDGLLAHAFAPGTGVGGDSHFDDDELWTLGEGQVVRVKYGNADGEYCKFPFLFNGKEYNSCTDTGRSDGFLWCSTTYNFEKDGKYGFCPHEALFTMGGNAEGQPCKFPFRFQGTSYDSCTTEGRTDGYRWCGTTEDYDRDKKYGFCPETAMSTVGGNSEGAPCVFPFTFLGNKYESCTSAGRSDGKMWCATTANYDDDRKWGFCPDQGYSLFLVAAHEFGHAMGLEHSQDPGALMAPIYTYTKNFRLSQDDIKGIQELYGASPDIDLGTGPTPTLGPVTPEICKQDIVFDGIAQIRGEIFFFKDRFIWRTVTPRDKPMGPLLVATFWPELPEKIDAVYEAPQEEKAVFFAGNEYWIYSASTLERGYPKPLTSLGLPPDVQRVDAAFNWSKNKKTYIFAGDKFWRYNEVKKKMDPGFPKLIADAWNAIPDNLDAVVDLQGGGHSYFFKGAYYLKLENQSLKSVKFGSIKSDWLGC
# MMP-9 [2] = test: Substrate phage display with NGS: relative probability (RP) of P3-P1' tetramer clusters; format: biochemical, human; conditions: MMP9; RP of the substrate's P3-P1' tetramer, substrate phage display with NGS;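 note: ratio of tetramer probability after protease selection to that in naive phage library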
# Chain of MMP-9 (Homo sapiens, UniProt P14780) (P14780 94-707): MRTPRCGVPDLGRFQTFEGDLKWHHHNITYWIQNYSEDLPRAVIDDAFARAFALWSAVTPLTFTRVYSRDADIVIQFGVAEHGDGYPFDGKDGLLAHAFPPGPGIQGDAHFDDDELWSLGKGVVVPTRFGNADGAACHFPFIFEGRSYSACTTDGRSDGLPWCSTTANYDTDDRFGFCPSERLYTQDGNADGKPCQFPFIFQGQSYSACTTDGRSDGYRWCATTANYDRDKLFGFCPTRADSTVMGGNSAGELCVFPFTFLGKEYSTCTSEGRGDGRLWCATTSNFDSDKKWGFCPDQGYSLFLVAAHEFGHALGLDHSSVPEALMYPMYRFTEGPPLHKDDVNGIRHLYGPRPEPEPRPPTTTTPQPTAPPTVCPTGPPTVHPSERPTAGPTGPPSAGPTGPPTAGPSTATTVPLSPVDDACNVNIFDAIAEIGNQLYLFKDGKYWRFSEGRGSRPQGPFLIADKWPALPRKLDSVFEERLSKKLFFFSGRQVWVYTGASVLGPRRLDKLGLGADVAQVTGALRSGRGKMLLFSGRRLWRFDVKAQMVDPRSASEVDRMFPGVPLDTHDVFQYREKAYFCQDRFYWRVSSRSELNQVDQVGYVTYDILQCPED
Substance,Kobs (MMP-9 [1]) [M⁻¹ s⁻¹],Kobs (MMP-2) [M⁻¹ s⁻¹],relative probability (RP) (MMP-9 [2])
IGVRQ-LTASG,12792.1,3536.02,23.9228
ILLSP-LTASG,1030.73,12792.1,4.611
ILVWN-YTASG,12792.1,4922.1,30.7196
IMHRA-LTASG,9740.44,12792.1,18.7073
KAPAH-LTASG,12792.1,12792.1,44.1453
KDPKF-LTASG,10866.7,4613.14,42.7484
KFPAS-LTASG,12792.1,12792.1,46.2982
KFPWN-YTASG,12792.1,2097.28,48.0713
KGPSG-LTASG,10866.7,12792.1,47.388
KHPYK-YTASG,12792.1,1816.46,33.5853
KIPSA-LTASG,9740.44,12792.1,47.6113
KMPST-LTASG,6396.07,12792.1,36.3405
KQLAS-LTASG,690.17,12792.1,2.45
KRLAF-LTASG,912.511,12792.1,0.6348
KRVYL-LTASG,2687.73,484.315,2.817
KSISN-WTASG,84.609,10866.7,0.06259
KSPRP-YTASG,12792.1,12792.1,47.6856
KSPTG-LTASG,8321.48,10866.7,39.8897
KVLSA-VTASG,12792.1,12792.1,0.4242
KYHAW-MTASG,27.918,7386.83,0.08727
LAPRY-WTASG,12792.1,12792.1,27.5973
LGPSH-YTASG,12792.1,12792.1,38.4805
LIPAW-LTASG,10866.7,12792.1,46.2228
LIPTS-LTASG,12792.1,12792.1,31.9505
LKVMN-YTASG,12792.1,3637.04,29.3662
LPPLG-FTASG,10866.7,12792.1,44.5202
LQIGH-LTASG,1870.4,12792.1,14.7862

Substance,Kobs (MMP-9 [1]) [M⁻¹ s⁻¹],Kobs (MMP-2) [M⁻¹ s⁻¹],relative probability (RP) (MMP-9 [2])
LQLAL-YTASG,912.511,12792.1,1.077
LVVRA-HTASG,5461.43,4082.43,18.814
MALSS-LTASG,0,7015.91,4.987
MFVRK-LTASG,4763.33,10866.7,0
MGLAN-LTASG,951.362,12792.1,11.5381
MGPWF-MTASG,9740.44,0,35.6409
MGPWG-MTASG,12792.1,4335.13,49.8335
MPMGR-LTASG,113.394,4082.43,2.466
MSLAT-LTASG,0,12792.1,0.7406
MSPKG-VTASG,12792.1,12792.1,38.7703
MSPRK-FTASG,12792.1,12792.1,2.647
MWVLS-LTASG,8941.32,12792.1,27.5596
NAPNA-LTASG,12792.1,12792.1,41.7392
NGPYN-LTASG,12792.1,5461.43,49.1716
NIPTR-LTASG,1327.88,12792.1,15.5872
NPPSH-LTASG,12792.1,12792.1,43.8368
NRPSW-VTASG,12792.1,9740.44,29.0809
NSPMS-LTASG,12792.1,12792.1,47.1282
NSPSD-LTASG,9740.44,12792.1,38.1321
PCPTG-LTASG,3253.29,8321.48,39.8897
PKLAA-ITASG,0,12792.1,1.188
PKPAR-LTASG,12792.1,12792.1,40.1634
PQMGS-LTASG,201.585,12792.1,3.398
PSLAE-LTASG,654.784,8941.32,0.4438
PSLGQ-LTASG,56.119,12792.1,2.507
PTLQY-LTASG,585.336,12792.1,2.48
PTPRS-YTASG,12792.1,7386.83,44.546
